The source of these data is article PMC7235904, “Is Blood a Good Indicator for Detecting Antimicrobials in Meat? Evidence for the Development of In Vivo Surveillance Methods” (Antibiotics, 2020).

Molecules are shown by their SMILES. Like-named read-outs stand apart in the source and are kept apart here. Marks after values point to notes of the source that are not given here.

The nature of series [1]: Antimicrobial residue concentration and depletion in muscle of treated pigs within the withdrawal period (LC-MS/MS or HPLC-FLD). The series is classed as in vivo. To be noted: for concentration at 2 day of withdrawal period / half-life / concentration at 3 day of withdrawal period / concentration at 4 day of withdrawal period / concentration at 7 day of withdrawal period / concentration at 15 day of withdrawal period: intramuscular; for concentration at 2 day of withdrawal period: withdrawal period Day 2, pig; for Maximum concentration value in Muscle / Minimum concentration value in Muscle: over the sample bank of treated piglets; for half-life: both sexes, T1/2=Ln(2)/λz, read-out: T1/2 half-life of elimination (MUSCLE) (converted); for concentration at 3 day of withdrawal period: withdrawal period Day 3, pig; for Time until levels reached the detection limit (DL) in muscle: DL 10 µg/kg; for Slope (MUSCLE): regression of concentration over the withdrawal period, deep intramuscular treatment; for concentration at 4 day of withdrawal period: withdrawal period Day 4, pig; for concentration at 7 day of withdrawal period: withdrawal period Day 7, pig; for concentration at 15 day of withdrawal period: withdrawal period Day 15, pig. An excerpt:
To obtain samples containing antimicrobial compounds administered in vivo, 93 piglets (62 female, 31 male) with an average weight of 43.00 ± 12.79 kg were provided at treatment onset. These piglets were untreated animals that remained on the premises of the Faculty of Veterinary Sciences at the University of Zaragoza (Zaragoza, Spain) 40 days before administration of the compounds. Both during the acclimatization and withdrawal periods, animals were fed ad libitum with a special mixed feed that was free of antibiotics ([…], Spain), and water was provided from a separated, controlled water circuit. Piglets were raised in separate pens depending on the antibiotic administrated. After administration, animals were slaughtered at preset intervals within the withdrawal period in order to obtain samples containing different antimicrobial concentrations above and below the MRLs for muscle. Figure S1 indicates the slaughter days and the withdrawal periods set by the manufacturer for each antimicrobial compound administered. Between one and three piglets were slaughtered on the same day post-administration. The day of slaughter was calculated from the first day after the last antimicrobial treatment dose. […] Apart from samples containing antimicrobial compounds administered in vivo, and as a part of the sample bank, 15 of the 93 piglets were slaughtered after the acclimatization period and before treatment onset. Animals were stunned and slaughtered following the guidelines established by European Council Regulation (EC) No. 1099/2009 [39] regarding the protection of animals at the time of slaughter or killing. A penetrative captive bolt gun was used to stun the pigs, positioning it firmly against the skin, in the middle of the forehead, 2 cm above the line of the eyes, aiming towards the tail. This was followed by complete exsanguination carried out by incision in the jugular furrow at the base of the neck to sever all the major blood vessels arising from the heart. The samples obtained from them were used as blank samples for analysis. […] Samples were immediately frozen at -20 °C until analysis. For HPLC-FLD analyses, matrix solid phase dispersion (MSPD) was used. A total of 1.00 ± 0.01 g of tissue was weighed. Internal quality control samples were spiked at this point. […] It was introduced into a 25 mL reservoir and compacted. Clean-up was made with 8 mL of hexane, and quinolones were eluted with 15 mL acetonitrile/methanol (1:1) acidified with acetic acid 1%. […] The extraction procedure for LC-MS/MS determination was based on Chico et al.. […] All samples were spiked with IS at this point, and calibrants and internal quality control samples were prepared by spiking the corresponding amount of standard working solution. A total of 200 μL of 0.1 M EDTA was added, followed by 10 mL of 70% methanol, and samples were vortexed for 30 s, swung for 15 min, and finally centrifuged at 4500 rcf for 10 min at a temperature below 10 °C (Heraeus Multifuge X3 FR, Heraeus, Hanau, Germany). Then, 500 μL of supernatant was collected and diluted by adding 1500 μL of water. Extracts were filtered through 0.2 μm pore filters directly into LC-MS/MS vials. […] Mobile phase consisted of eluent A: phosphoric acid with trimethylamine buffer (pH = 3), and eluent B: acetonitrile, in isocratic mode (21:79) with a flow rate of 1 mL/min. Injected volume was 50 μL. […] The same mobile phase and gradient conditions as in SCIEX instruments were applied. Injected volume was 10 μL. Two ESI+ MRM transitions were monitored for each compound (Table S5). […] Results were represented as the mean ± standard deviation using the PRISM program (GraphPad Software, Inc., San Diego, USA). The rates of elimination (λz) of antibiotics from muscle and blood were determined by regression analysis. […]

The conditions of series [2]: cited from earlier work; for Suppression Period (withdrawal period set by the manufacturer): commercial product, deep intramuscular, ref manufacturer; for MRLs: muscle, ref Regulation (EEC) No. 2377/90.
A short description of series [3]: Antimicrobial residue concentration and depletion in blood (serum) of treated pigs within the withdrawal period (LC-MS/MS). The following applies: for Maximum concentration value in Blood / Minimum concentration value in Blood: over the sample bank of treated piglets; for half-life: both sexes, intramuscular, T1/2=Ln(2)/λz, read-out: T1/2 half-life of elimination (BLOOD) (converted); for half-life / Slope (BLOOD): pig blood serum; for Slope (BLOOD): regression of concentration over the withdrawal period, deep intramuscular treatment; for Time until levels reached the detection limit (DL) in blood: DL 10 µg/kg. The series is classed as in vivo. An excerpt:
To obtain samples containing antimicrobial compounds administered in vivo, 93 piglets (62 female, 31 male) with an average weight of 43.00 ± 12.79 kg were provided at treatment onset. These piglets were untreated animals that remained on the premises of the Faculty of Veterinary Sciences at the University of Zaragoza (Zaragoza, Spain) 40 days before administration of the compounds. Both during the acclimatization and withdrawal periods, animals were fed ad libitum with a special mixed feed that was free of antibiotics ([…], Spain), and water was provided from a separated, controlled water circuit. Piglets were raised in separate pens depending on the antibiotic administrated. After administration, animals were slaughtered at preset intervals within the withdrawal period in order to obtain samples containing different antimicrobial concentrations above and below the MRLs for muscle. Figure S1 indicates the slaughter days and the withdrawal periods set by the manufacturer for each antimicrobial compound administered. Between one and three piglets were slaughtered on the same day post-administration. The day of slaughter was calculated from the first day after the last antimicrobial treatment dose. […] Apart from samples containing antimicrobial compounds administered in vivo, and as a part of the sample bank, 15 of the 93 piglets were slaughtered after the acclimatization period and before treatment onset. Animals were stunned and slaughtered following the guidelines established by European Council Regulation (EC) No. 1099/2009 [39] regarding the protection of animals at the time of slaughter or killing. A penetrative captive bolt gun was used to stun the pigs, positioning it firmly against the skin, in the middle of the forehead, 2 cm above the line of the eyes, aiming towards the tail. This was followed by complete exsanguination carried out by incision in the jugular furrow at the base of the neck to sever all the major blood vessels arising from the heart. The samples obtained from them were used as blank samples for analysis. Blood was collected not only from slaughtered animals, but also from living animals on each day of slaughter. […] For quinolones in blood serum samples, a LC-MS/MS method was set up using a SCIEX Exion LC coupled to TripleQuad 6500+ triple quadrupole detector equipped with an Acquity Ultra Performance Liquid Chromatography Ethylene Bridged Hybrid (UPLC BEH) C18 (1.7 μm, 2.1 × 100 mm) column. Mobile phase consisted of eluent A: 0.1% formic acid in water, and eluent B: 0.1% formic acid in acetonitrile at a flow rate of 0.4 mL/min. […] Injected volume was 5 μL. Analytes were detected using positive electrospray ionization (ESI+) in multiple reaction monitoring (MRM) mode, and two transitions were monitored for each compound of interest (Table S4). […] The same mobile phase and gradient conditions as in SCIEX instruments were applied. […] Two ESI+ MRM transitions were monitored for each compound (Table S5). […] Results were represented as the mean ± standard deviation using the PRISM program (GraphPad Software, Inc., San Diego, USA). The rates of elimination (λz) of antibiotics from muscle and blood were determined by regression analysis. The corresponding half-lives of elimination were calculated according to the following equation: Half-life of elimination.

On the set-up of series [4]: method as in earlier work. To be noted: cited from earlier work.
Where [5] appears, read: forequarter muscle, read-out: Concentration in Forequarters.
[6] abbreviates: hindquarter muscle, read-out: Concentration in Hindquarters.
The mark [7] stands for this setting: loin muscle, read-out: Concentration in Loins.

On to `CC1(C)S[C@@H]2[C@H](NC(=O)[C@H](N)c3ccc(O)cc3)C(=O)N2[C@H]1C(=O)O` [Amoxicillin, amoxicillin], for which the concentration at 2 day of withdrawal period in series [1] (setting [5]) amounted to 20.7 ± 1.15 ng/g. Besides, in series [1] (setting [6]), the concentration at 2 day of withdrawal period worked out at 25.3 ± 6.43 ng/g. The concentration at 2 day of withdrawal period in series [1] (setting [7]) amounted to 149 ± 8.54 ng/g. In series [1], the “Maximum concentration value in Muscle” value was found to be 307.00 ± 10.39 µg/kg and the “Minimum concentration value in Muscle” value came out at 13.33 ± 2.52 µg/kg. In addition, the “Concentration in loins compared with forequarters and hindquarters” value in series [1] (pig muscle groups, Table S1) was “over seven times higher”. The “Time at which muscle amounts were close to the MRL” value in series [1] (pig muscle, MRL 50 µg/kg) is reported as “first day of the withdrawal period”. Further, in series [2], the “Suppression Period (withdrawal period set by the manufacturer)” value is 25 days and the MRLs is listed as 50 µg/kg. Further, in series [3], the “Maximum concentration value in Blood” value was 73.00 ± 6.24 µg/kg and the “Minimum concentration value in Blood” value worked out at 19.00 ± 1.00 µg/kg. In series [3] (pig blood, MRL 50 µg/kg), the “Time at which blood amounts were close to the MRL” value was “first day of the withdrawal period”.

On to `CCN1CCN(c2cc3c(cc2F)c(=O)c(C(=O)O)cn3C2CC2)CC1` [Enrofloxacin, enrofloxacin], for which, in series [1] (pig muscle), the half-life was 22.1 h, the “Time until levels reached the detection limit (DL) in muscle” value stood at 7 days after inoculation and the “Slope (MUSCLE)” value was −0.3289 ± 0.01929 ^a. In series [1] (setting [5]), the concentration at 2 day of withdrawal period was found to be 374 ± 4.73 ng/g and the concentration at 3 day of withdrawal period was 990.5 ± 3.54 ng/g. In series [1] (setting [6]), the concentration at 2 day of withdrawal period amounted to 387 ± 8.5 ng/g and the concentration at 3 day of withdrawal period amounted to 1075 ± 1.41 ng/g. For the same compound, in series [1] (setting [7]), the concentration at 2 day of withdrawal period was found to be 383 ± 2 ng/g and the concentration at 3 day of withdrawal period was 1060 ± 2.12 ng/g. Moreover, in series [1], the “Maximum concentration value in Muscle” value is listed as 1858.00 ± 156.37 µg/kg and the “Minimum concentration value in Muscle” value is 18.00 ± 2.65 µg/kg. Further, in series [3], the half-life is 45.6 h, the “Maximum concentration value in Blood” value is listed as 448.50 ± 2.12 µg/kg, the “Minimum concentration value in Blood” value was found to be 21.67 ± 1.15 µg/kg and the “Slope (BLOOD)” value was −0.2213 ± 0.01639 ^b. For the same compound, the “Time until levels reached the detection limit (DL) in blood” value in series [3] (pig blood) was determined as 8 days after inoculation.

With `CN(C)[C@@H]1C(O)=C(C(N)=O)C(=O)[C@@]2(O)C(O)=C3C(=O)c4c(O)cccc4[C@@](C)(O)[C@H]3[C@H](O)[C@@H]12` [Oxytetracycline, oxytetracycline], in series [1] (pig muscle), the half-life was 82.3 h, the “Time until levels reached the detection limit (DL) in muscle” value stood at 26 days after inoculation and the “Slope (MUSCLE)” value is listed as −0.08784 ± 0.005403 ^a. In series [1] (setting [5]), the concentration at 4 day of withdrawal period is 971 ± 53.3 ng/g, the concentration at 7 day of withdrawal period is 411 ± 27.5 ng/g and the concentration at 15 day of withdrawal period was found to be 99.7 ± 6.51 ng/g. Moreover, in series [1] (setting [6]), the concentration at 4 day of withdrawal period is 1010 ± 55.5 ng/g, the concentration at 7 day of withdrawal period was 383 ± 45.9 ng/g and the concentration at 15 day of withdrawal period is 100 ± 16 ng/g. In series [1] (setting [7]), the concentration at 4 day of withdrawal period is 905 ± 118 ng/g, the concentration at 7 day of withdrawal period is 383 ± 12.9 ng/g and the concentration at 15 day of withdrawal period was 125 ± 15.7 ng/g. For the same compound, in series [1], the “Maximum concentration value in Muscle” value is given as 1005.33 ± 55.47 µg/kg and the “Minimum concentration value in Muscle” value is reported as 31.33 ± 3.21 µg/kg. In series [2], the “Suppression Period (withdrawal period set by the manufacturer)” value is given as 28 days and the MRLs is 100 µg/kg. Moreover, in series [3], the half-life is 86.2 h, the “Maximum concentration value in Blood” value is 615.00 ± 204.47 µg/kg, the “Minimum concentration value in Blood” value turned out to be 24.00 ± 1.73 µg/kg and the “Slope (BLOOD)” value is −0.08879 ± 0.007069 ^a. Moreover, in series [3] (pig blood), the “Time until levels reached the detection limit (DL) in blood” value turned out to be 25 days after inoculation. Moreover, in series [4], the “Share of the dose eliminated in the feces” value was 40% and the “Share of the dose eliminated in urine via glomerular filtration” value is on record as 60%.
